According to article PMC5617480 (Oncotarget, 2017):

Experiments:
[1] = Solubility in water by UV-vis spectroscopy; format: physicochemical; settings: H2O
Procedure: We next determined the solubility and stability of complexes 4, 5, and 6 in H2O and TBS buffer by UV-vis spectroscopy. […] TBS buffer (1% DMSO, 100 mM KCl, and 10 mM pH 7.35 Tris-HCl) was used to mimic normal physiological conditions.

ctDNA = assay: FID assay; format: binding; settings: for ctDNADC50: FID; for ctDNADC50/ctDNADC50: FID selectivity ratio
Procedure: (§1) We asked whether chiral platinum(II) complexes 4–6 have the ability to bind to G-quadruplex DNA. To address this, FRET assays, CD spectroscopy, G4-FID assays, and fluorescence titration analysis were performed. […] For G4-HTG21, the ^G4DC50 values of complexes 4–6 were 1.23, 1.26 and 0.99 μM, respectively; while, for G4-Pu27, the ^G4DC50 values were 1.01, 0.89, and 0.82 μM, respectively. In addition, the ^ctDNADC50/^G4DC50 ratio of the HTG21 and Pu27 G4s treated with complexes 4–6 was in the range of 50.54-90.65 and 71.56-110.67 folds, respectively. To further evaluate the binding ability of complexes 4–6 to Pu27 and HTG21G4s, CD spectroscopy and fluorescence titration analysis were performed. […] The quenching ability of complexes 4–6 to HTG21 and Pu27 G4 DNA fluorescence can be quantitatively estimated by their respective quenching constant (Kq), which was derived from the Stern-Volmer quenching equation. […] Finally, the selective binding of complexes 4–6 towards G4 DNA was analyzed by FRET-melting assays. […] In contrast, the ΔTm value for the F32T+H20M duplex DNA in the presence of complexes 4–6 was 1.18, 1.34, and 0.78 °C under the same conditions (Figure 4A). Altogether, our data indicated complexes 4–6, especially complex 6, is the best binder to G4 DNA, which caused DNA complex displaying the highest thermodynamic stability. […]
(§2) Supplementary Figure 20: FID results onto 4 (A), 5 (B) and 6 (C) toward DNA in sodium cacodylate buffer solution. […]

[2] = test system: HTG21 (human telomeric) G4; assay: FID assay; format: binding; settings: for HTG21DC50: FID; for ctDNADC50/HTG21DC50: FID selectivity ratio
Procedure: as §1, §2

Pu27 (c-myc) G4 = assay: FID assay; format: binding; settings: for Pu27DC50: FID; for ctDNADC50/Pu27DC50: FID selectivity ratio
Procedure: as §1, §2

BEL-7404 cells [3] = assay: Cell cycle analysis (PI flow cytometry); format: cell-based, human; settings: BEL-7404, 10 μM, 48 h; untreated 24.76%
Procedure: Platinum(II)-based drugs were widely used in anticancer chemotherapies, therefore, we performed experiments to test the potency of chiral platinum(II) complexes 4–6 for inducing senescence and apoptosis in BEL-7404 cells. […] We next investigated the effect of complexes 4–6 on the induction of apoptosis. BEL-7404 cells were incubated with complexes 4 (10 and 20 μM), 5 (10 and 20 μM) and 6 (5, 10 and 20 μM) for 24 h, respectively, and then these cells staining with PI and Annexin-V-FITC were determined by flow cytometry (Figure 3A and Supplementary Figure 18). As shown in Figure 3A and Supplementary Figure 18, after treated of complexes 4–6 with 10 μM for 24 h, the percentage of apoptotic cells (including early-stage and late-stage, Q2+Q4) was 13.1%, 7.0% and 25.4%, respectively, whereas the normal cells was only 6.1%. We further investigated the ability of complexes 4–6 (5, 10 and 20 μM) to induce BEL-7404 cell cycle arrest (Figure 3B and Supplementary Figure 19). Cells were treated with complexes 4–6 at 10 μM for 48 h, the cell cycle arrest was determined by using flow cytometry. […]
Apoptosis analysis c-myc antibody, or anti-β-actin primary antibody and the Apoptosis was detected by flow cytometric analysis corresponding secondary antibody were used to detect of annexin V staining. […] Then, cells were incubated with annexin V-FITC and PI for 1.0 h at Staining for SA-β-Gal activity was carried out room temperature in the dark and immediately analyzed according to Moore and Chen reports. […] The data are presented as biparametric After the long-term incubation with complexes 4–6, the dot plots showing PI red fluorescence vs annexin V-FITC growth medium was aspirated and the BEL-7404 cells green fluorescence. were fixed in 2% formaldehyde/0.2% glutaraldehyde for 15.0 min at room temperature. […] Finally, the extraction, RT-PCR, and the selective binding to G4s by BEL-7404 cell cycle was determined with FACS Calibur complexes 4–6 was according to the our previous reported flow cytometer (BD) and analyzed using Cell Quest. […]

BEL-7404 cells [4] = test system: BEL-7404 cells; parameters: method as in earlier work; settings: BEL-7404, 48 h; ref [1]; cited from earlier work
HL-7702 normal cells = settings: ref [1], cited from earlier work; for selectivity index factor, IC50 (normal HL-7702 cells)/IC50 (BEL-7404 tumor cells): 48 h; for IC50: HL-7702, 48 h

Compound | solubility in water [1] [µg/mL] | ctDNADC50 (ctDNA) [µM] | ctDNADC50/ctDNADC50 (ctDNA) | HTG21DC50 [2] [µM] | ctDNADC50/HTG21DC50 [2] | Pu27DC50 (Pu27 (c-myc) G4) [µM] | ctDNADC50/Pu27DC50 (Pu27 (c-myc) G4) | percentage of cells at S phase (BEL-7404 cells [3]) [%] | IC50 (BEL-7404 cells [4]) [µM] | selectivity index factor, IC50 (normal HL-7702 cells)/IC50 (BEL-7404 tumor cells) (HL-7702 normal cells) | IC50 (HL-7702 normal cells) [µM]
cis-[PtCl2(R/S-(±)-FOA)] [complex 4] | 680 | 75.87 | 1.00 | 1.23 | 61.68 | 1.01 | 75.11 | 37.59 | – | – | –
cis-[PtCl2(S-(–)-FOA)] [complex 6] | 2000 | 90.73 | 1.00 | 0.99 | – | 0.82 | 110.67 | 38.61 | – | – | –
O=C(NC[C@H](O)CO)c1cnc2c3c(cccc13)-c1ccccc1C2=O.[Cl-].[Cl-].[Pt+2] [ligand 3, S-(–)-FOA] | – | – | – | – | – | – | – | – | 15.4 ± 0.2 | 5.3 | 81.4 ± 2.7
O=C(NC[C@@H](O)CO)c1cnc2c3c(cccc13)-c1ccccc1C2=O.[Cl-].[Cl-].[Pt+2] [ligand 2, R-(+)-FOA] | – | – | – | – | – | – | – | – | 20.5 ± 0.1 | > 4.9 | > 100
O=C(NCC(O)CO)c1cnc2c3c(cccc13)-c1ccccc1C2=O.[Cl-].[Cl-].[Pt+2] (racemic) [ligand 1, R/S-(±)-FOA] | – | – | – | – | – | – | – | – | 17.2 ± 0.1 | > 5.8 | > 100
cis-[PtCl2(R-(+)-FOA)] [complex 5] | 1000 | 63.69 | 1.00 | 1.26 | 50.54 | 0.89 | 71.56 | 32.33 | – | – | –
